Reference: patent publication US9029327B2, “Vaccine” (Affiris AG, priority 2009, dated 2015)
No end group written: not given here.

Key:
[1] = % of the activity of Ang II; cited from earlier work
Ang II peptide = assay: peptide based ELISA of sera from vaccinated mice: binding capacity/titers against the Ang II peptide; type: in vivo; conditions: BALB/c mice, peptide-KLH, Alum; for reactivity/titer of induced sera against Ang II: ELISA titer ODmax/2, compared with sera evoked by Ang II peptide (set as 100%)
Experimental: (§1) In each Figure, on the X-axis sera derived from animals immunized with indicated peptides are listed. On the Y-axis relative titers of induced sera are shown. Titers derived from Ang II treated animals were set as 100%. Titers were calculated as the sera dilution giving half-maximal binding (i.e. ODmax/2). White bars indicate titers against the peptides that were used for vaccination while black bars represent titers against the Ang II peptide.
Therefore, in a first set of experiments each position in the Ang II sequence was systematically replaced by amino acids having similar or different features (see Table 1 for position 2). Subsequently all these peptides were chemically linked via an additional N-terminal cysteine to the protein carrier keyhole limpet haemocyanin (KLH) and administrated to mice (BALB/c) together with Alum as adjuvant. Sera from vaccinated mice were used to analyze the immunogenicity of indicated peptides. For this purpose a peptide based ELISA assay was used to define sera titers against the injected peptide (i.e. Ang II peptide variants, VARIOTOPEs) as well as to define the binding capacity of the obtained sera against the Ang II peptide.
as §1, with “the Figures (FIGS. 1 to 8 for position 1 to position 8) the results derived from these experiments are shown. On” for “each Figure, on”
(§2) All peptides listed in Table 2 were again chemically linked via the N-terminus to KLH adsorbed to Alum and injected s.c. into experimental animals (BALB/c mice). Sera were analyzed by ELISA and antibody responses induced by the peptide variants were compared to that one induced by the original peptide.

[2] = system: injected peptide (Ang II peptide variants, VARIOTOPEs); assay: peptide based ELISA of sera from vaccinated mice: titers against the injected peptide; type: in vivo; conditions: BALB/c mice, peptide linked via N-terminal cysteine to KLH, Alum; ELISA titer ODmax/2, compared with Ang II treated animals (set as 100%)
Experimental: as §1
Therefore, in a first set of experiments each position in the Ang II sequence was systematically replaced by amino acids having similar or different features (see Table 1 for position 2). Subsequently all these peptides were chemically linked via an additional N-terminal cysteine to the protein carrier keyhole limpet haemocyanin (KLH) and administrated to mice (BALB/c) together with Alum as adjuvant. […]
In the Figures (FIGS. 1 to 8 for position 1 to position 8) the results derived from these experiments are shown. […] Titers were calculated as the sera dilution giving half-maximal binding (i.e. ODmax/2). […]
as §2

Q: With Ang IV as the substance, how does the “activity relative to Ang II” value [1] read?
A: approximately 40%

Q: For “C-DAVYIAAA (CDAVYIAAA; also: C-terminal modification)”, which “reactivity/titer of induced sera against Ang II” value (“reactivity/titer of induced sera” below) (Ang II peptide) is on record?
A: diminished reactivity

Q: Which “sera titer against the injected peptide” value [2] does the source give for “C-DAVYIAAF (CDAVYIAAF; also: C-terminal modification)” here?
A: lower compared to the titers induced by the other antigens

Q: What about the “reactivity/titer of induced sera” value (Ang II peptide) of the same substance?
A: diminished reactivity

Q: For “C-DAVYIAPF (CDAVYIAPF; also: C-terminal modification)”, which “reactivity/titer of induced sera” value (Ang II peptide) is on record?
A: diminished reactivity

Q: Which “reactivity/titer of induced sera” value (Ang II peptide) does the source give for “C-DRAAAHAF (CDRAAAHAF; also: C-terminal modification)” here?
A: diminished reactivity

Q: For “C-DRVYAAPF (CDRVYAAPF; also: C-terminal modification)”, which “reactivity/titer of induced sera” value (Ang II peptide) is on record?
A: diminished reactivity

Q: For “C-DRVYIHAA (CDRVYIHAA; also: C-terminal modification)”, which “reactivity/titer of induced sera” value (Ang II peptide) is on record?
A: diminished reactivity

Q: With “peptide variant with G on position 1: Ang II peptide CDRVYIHPF with G on position 1, KLH-linked; compare GRVYIHPF (SEQ ID NO:6)” as the substance, how does the “sera titer against the injected peptide” value [2] read?
A: almost twice as high

Q: What about the “increase of reactivity against Ang II” value (Ang II peptide; versus sera of Ang II treated animals) of the same substance?
A: ~50%
